The term EC50 denotes the midpoint of the concentration-response curve.

Experimental findings from patent publication US20010041688A1, “Methods and compositions for the regulation of vasoconstriction” (priority 2000, published 2001) are described below.

In one assay the test system is cerebral blood flow. Description: Relative cerebral blood flow by laser Doppler flowmetry in anesthetized rats. Particulars: for Relative cerebral blood flow (rCBF) in cerebral cortex: 0.3 mg/kg infused into left internal carotid artery, anesthetized rats. The format is in vivo, rat. How it is done:
Pentobarbital-anaesthetized mechanically-ventilated male rats (250-300 g, Charles River) were maintained at 37.0±0.5° C. A femoral vein and artery were cannulated to monitor mean arterial blood pressure, heart rate and arterial blood gases. The left common carotid artery was ligated. The animals were placed in a stereotaxic frame and relative cerebral blood flow (rCBF) was measured by a laser Doppler flow probe (Model PF2B, Perimed) affixed to the thinned skull above the vascular territory of the left middle cerebral artery (2 mm posterior to Bregma, 3 mm lateral to midline). Changes in rCBF were expressed as a percentage of baseline and recorded for 20 minutes beginning at the onset of drug or vehicle infusion. S1P, DHS1P or vehicle were infused (100 μl/2 minutes) into the left internal carotid artery. Some rats were pretreated with suramin via infusion (200 μl/2 min) into the left femoral vein.

Assay [1] has as its system basilar artery. Details: species or system rat.
The subject of assay [2] is S1P-induced vasoconstriction of basilar artery. In words: Modulation of S1P-induced vasoconstriction in isolated basilar artery. Details: species or system rat.
A further assay deals with middle cerebral artery. Description: Contractile tension in isolated middle cerebral artery (isometric myograph). Particulars: isolated rat middle cerebral artery; for Contractile response Emax: % of contraction evoked by 100 mM KCl; for EC50: read-out: Contractile response EC50. As to the method: (§1) Preparations were equilibrated unstretched for 30 min.
A further assay concerns carotid artery. In words: Contractile tension in isolated carotid artery (isometric myograph). The following applies: isolated rat carotid artery; for Contractile response Emax: % of contraction evoked by 100 mM KCl. How it is done: as §1
For assay [3], the system named is basilar artery. In words: Contractile tension in isolated basilar artery (isometric myograph). Particulars: isolated rat basilar artery; for Contractile response Emax: % of contraction evoked by 100 mM KCl; for EC50: read-out: Contractile response EC50. How it is done: as §1
Another assay concerns femoral artery. In words: Contractile tension in isolated femoral artery (isometric myograph). The following applies: isolated rat femoral artery; for Contractile response Emax: % of contraction evoked by 100 mM KCl. How it is done: as §1
Another assay has as its system coronary artery. In words: Contractile tension in isolated coronary artery (isometric myograph). Particulars: isolated rat coronary artery; for Contractile response Emax: % of contraction evoked by 100 mM KCl. As to the method: as §1
A further assay has as its system mouse basilar arteries. Description: Constriction of mouse basilar artery. The following applies: data not shown.
A further assay has as its system rabbit basilar arteries. In words: Constriction of rabbit basilar artery. Particulars: data not shown.
The mark [4] stands for this setting: read-out: Contractile response EC50.

Procedure for mouse basilar arteries: (§2) Arterial segments (1.5-2 mm) in physiological solution (mM: NaCl, 118; KCl, 4.6; NaHCO3, 25; MgSO4, 1.2; KH2PO4, 1.2; CaCl2, 2.5; glucose, 10; EDTA, 0.025; pH 7.4 at 37° C., 95% O2-5% CO2) were threaded onto 40 μm stainless steel wires (25 μm for mouse basilar) and mounted in a isometric myograph (601M, Danish Myo Technology). Preparations were equilibrated unstretched for 30 min. The normalized passive resting force and the corresponding diameter were determined as published. […] The preparations were then challenged with 100 mM KCl, 5-hydroxytryptamine (Sigma) or sphingolipids. Contractions were expressed in % of the KCl-evoked contraction. Sphingosine, dimethylsphingosine or suramin (Calbiochem) were added 30 min prior to 5-HT or S1P.
Procedure for rabbit basilar arteries: as §2

For `Cc1ccc(C(=O)Nc2ccc(S(=O)(=O)O)c3cc(S(=O)(=O)O)cc(S(=O)(=O)O)c23)cc1NC(=O)c1cccc(NC(=O)Nc2cccc(C(=O)Nc3cc(C(=O)Nc4ccc(S(=O)(=O)O)c5cc(S(=O)(=O)O)cc(S(=O)(=O)O)c45)ccc3C)c2)c1` [suramin], in the assay with cerebral blood flow (suramin 16 mg/kg via femoral vein, S1P 0.3 mg/kg), the “S1P's effect on rCBF after suramin pretreatment” value was “abolished”. Also, the “Contractile response to 5-HT after preincubation with suramin” value in the assay on basilar artery [1] (data not shown) is “did not modify”. The “Contractile response to S1P after preincubation with suramin” value in [2] (10 μM suramin, added 30 min prior to S1P) is on record as “markedly depressed”.
With `CCCCCCCCCCCCC/C=C/[C@@H](O)[C@@H](N)COP(=O)(O)O` [S1P, sphingosine-1-phosphate], the “Contraction (in words)” value in the assay on middle cerebral artery is given as “robust contraction”; with carotid artery, “unresponsive”; with basilar artery [3] it was “robust contraction”; in the assay on femoral artery it was “unresponsive”; in the assay on coronary artery, “weakly constricted”. For the same compound, the “Contractile response Emax” value was determined as 77.6 % KCl in the assay with middle cerebral artery; 5.2 % KCl with carotid artery; 96.7 % KCl in the assay on basilar artery [3]; 3.6 % KCl with femoral artery; 16.9 % KCl in the assay with coronary artery. Moreover, the EC50 with middle cerebral artery stood at 350 nM; in the assay on basilar artery [3] it was 280 nM. Moreover, in the assay with cerebral blood flow, the “Relative cerebral blood flow (rCBF) in cerebral cortex” value is “decreased”. Also, the “Constriction (in words)” value in the assay on mouse basilar arteries and in the assay on rabbit basilar arteries was “able to constrict” in each case.
As to `CCCCCCCCCCCCCCC[C@@H](O)[C@@H](N)COP(=O)(O)O` [DHS1P, dihydrosphingosine-1-phosphate], the “Contractile response Emax” value is 5.9 % KCl in the assay with carotid artery, 58.8 % KCl in the assay on basilar artery [3], 6.3 % KCl in the assay on femoral artery and 15.9 % KCl with coronary artery. Moreover, in the assay on cerebral blood flow, the “Relative cerebral blood flow (rCBF) in cerebral cortex” value is listed as “reduced rCBF, although less potently”. For the same compound, the “Contraction (in words)” value in the assay with basilar artery [3] is on record as “less effectively than S1P”. Moreover, the EC50 with basilar artery [3] came to 240 nM.
Regarding `CCCCCCCCCCCCC/C=C/[C@@H](O)[C@@H](N)CO` [sphingosine], the “Contractile response to S1P after preincubation with sphingosine together with DMS” value in assay [2] (sphingosine 10 μM plus DMS 20 μM, added 30 min prior to S1P) is recorded as “fully blocked”.
Take `[Cl-].[K+]` [KCl, potassium chloride]: the “Contractile response to KCl” value with middle cerebral artery (100 mM KCl) came out at 1.05 mN/mm; with carotid artery (100 mM KCl), 2.28 mN/mm; in the assay with basilar artery [3] (100 mM KCl), 1.70 mN/mm; in the assay on femoral artery (100 mM KCl) it was 4.52 mN/mm; with coronary artery (100 mM KCl), 1.87 mN/mm.
Consider Pertussis toxin, for which the “Response to 5-HT1 receptor agonist 5-carboxamidotryptamine after incubation with toxin” value with basilar artery [1] (without toxin 92±10, n=4, p<0.05) is given as 30±2 % of KCl-evoked contraction. Further, in assay [2] (basilar artery segments treated in vitro with toxin), the “Effect of toxin incubation on S1P-induced vasoconstriction (in words)” value is recorded as “did not modify”.
For `NCCc1c[nH]c2ccc(O)cc12` [5-HT, 5-hydroxytryptamine], the “Contractile response Emax” value stood at 73.2 % KCl with middle cerebral artery; 101.1 % KCl in the assay on carotid artery; 99.5 % KCl in the assay on basilar artery [3]; 133.2 % KCl with femoral artery; 119.3 % KCl with coronary artery. Further, the concentration for a half-maximal effect (EC50) in the assay with middle cerebral artery worked out at 44 nM; with carotid artery (setting [4]) it was 3180 nM; in the assay on basilar artery [3] it was 63 nM; in the assay with femoral artery (setting [4]) it was 122 nM; in the assay with coronary artery (setting [4]), 242 nM.
